From patent publication US20100029710A1, “COMPOUNDS HAVING BOTH ANGIOTENSIN II RECEPTOR ANTAGONISM AND PPARy ACTIVATING ACTIVITIES” (Pfizer Products Inc., priority 2006, published 2010)

Experiments:
[1] = biological target: T1, Human recombinant AT1 receptor (Homo sapiens, UniProt P30556); assay: AT1 receptor radioligand binding (flashplate); conditions: 125I Sar1,Ile8-Angiotensin II radioligand
T1 construct: purchased
T1 sequence (P30556 1-359): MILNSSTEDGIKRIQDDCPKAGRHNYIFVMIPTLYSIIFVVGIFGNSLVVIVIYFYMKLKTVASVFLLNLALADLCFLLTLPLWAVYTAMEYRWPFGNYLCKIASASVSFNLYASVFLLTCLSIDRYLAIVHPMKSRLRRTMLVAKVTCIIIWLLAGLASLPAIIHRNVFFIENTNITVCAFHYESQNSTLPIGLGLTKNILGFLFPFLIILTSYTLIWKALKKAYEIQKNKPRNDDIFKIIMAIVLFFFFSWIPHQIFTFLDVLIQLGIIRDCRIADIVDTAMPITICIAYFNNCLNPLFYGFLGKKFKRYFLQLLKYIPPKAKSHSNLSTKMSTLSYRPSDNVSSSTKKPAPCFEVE
Experimental: Angiotensin II receptor antagonist activity may be determined using commercially available flashplates coated with the AT1 or AT2 receptor which provide a rapid and high throughput means to evaluate compounds compared to traditional filtration based assays (Regina M. Van Der Hee et al., Journal of Biomolecular Screening 10(2); 2005; 118-126).
AT1 receptor affinity was determined in a radioligand binding format using commercially available flashplate technology. Human recombinant AT1 receptor were coated on the wells of a 96 well flashplate and test compounds were diluted and added to wells at a final concentration range of 50 μM to 1 μM. Total binding was determined in the absence of compound and non-specific binding in the presence of 10 μM cold Angiotensin II. ^125I labeled Sar^1, Ile^8-Angiotensin II was added to all wells at Kd concentration and left for 2 hours at room temperature to equilibrate. Plates were read on a TopCount (Perkin Elmer) and concentration-response curves constructed using commercial curve fitting software. The Ki was determined via interpolation and the use of the Cheng-Prussof equation.

[2] = biological target: T2, human PPARγ LBD bound to Gal4 DBD (Homo sapiens, UniProt P37231); assay: PPARγ transfection luciferase reporter assay in HepG2 cells; assay type: cell-based; conditions: for Emax: HepG2, 24 h, compared to full agonist response (standard TZD full agonist), read-out: PPARγ % activation; for EC50: HepG2, 24 hours exposure
T2 construct: expressed in transfected cells; host or cells: HepG2
T2 sequence (P37231 238-503 limits assumed): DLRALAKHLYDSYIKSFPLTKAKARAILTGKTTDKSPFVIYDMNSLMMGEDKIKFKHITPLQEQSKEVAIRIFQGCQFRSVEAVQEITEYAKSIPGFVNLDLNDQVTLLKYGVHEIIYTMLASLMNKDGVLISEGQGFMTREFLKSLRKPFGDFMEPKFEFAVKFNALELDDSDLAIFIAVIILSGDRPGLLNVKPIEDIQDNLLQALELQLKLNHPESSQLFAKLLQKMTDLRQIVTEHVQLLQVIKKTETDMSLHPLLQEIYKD
Experimental: PPARγ agonist activity may be determined by a cell line transiently transfected with PPARγ bound to a DNA binding domain that controls luciferase expression. The degree of receptor agonism is measured by the amount of luciferase activity after compound treatment. The ratio of treated cells over vehicle control cells provides a measure of fold activation and allows an EC50 (shown in tables I and II as […] EC50) and % activation to be calculated
A human hepatocellular carcinoma cell line (HepG2) was subcultured into dishes and transiently transfected with DNA to allow expression of human PPARγ LBD bound to Gal4 DBD. Luciferase reporter gene and β-galactosidase control genes were co-transfected to enable activity to be measured. After 24 hours, cells were exposed to compounds in the concentration range of 0.1 nM-100 μM and left for a further 24 hours. Luciferase activity is determined by luminometry and PPARγ activation is expressed as a ratio of luciferase activity to β-galactosidase activity to account for transfection efficiency. Potency is described by an EC50 defined as the concentration of compound producing receptor activation equivalent to 50% of the maximum for that compound (shown in Table I as transfection EC50). The maximum fold activation is a measure of efficacy and is expressed as a percentage of a reference full agonist run in the same assay. Efficacy is described by % activation of receptor relative to a standard thiazolidinedione (TZD) full agonist.

Compound: CCc1nc2c(C)cc(CC(O)C(C)C)nc2n1[C@H]1CCc2cc(-c3ccccc3-c3nnn[nH]3)ccc21 (stereo partly drawn) [Example 21, 1-(3-((1S)-5-(2-(1H-tetrazol-5-yl)phenyl)-2,3-dihydro-1H-inden-1-yl)-2-ethyl-7-methyl-3H-imidazo[4,5-b]pyridin-5-yl)-3-methylbutane-2-ol]
- IC50 [1]: 3.1 nM
- Emax [2]: 23%
- EC50 [2]: 100 nM

Compound: CCc1nc2c(C)cc(C3OC3(C)C)nc2n1[C@H]1CCc2cc(-c3ccccc3-c3nnn[nH]3)ccc21 (stereo partly drawn) [Example 22, 3-((1S)-5-(2-(1H-tetrazol-5-yl)phenyl)-2,3-dihydro-1H-inden-1-yl)-5-(3,3-dimethyloxiran-2-yl)-2-ethyl-7-methyl-3H-imidazo[4,5-b]pyridine]
- IC50 [1]: 2.2 nM
- Emax [2]: 28%
- EC50 [2]: 460 nM

Compound: CCc1nc2c(C)cc(/C=C/COC)nc2n1[C@H]1CCc2cc(-c3ccccc3-c3nnn[nH]3)ccc21 [Example 23, 3-((1S)-5-(2-(1H-tetrazol-5-yl)phenyl)-2,3-dihydro-1H-inden-1-yl)-2-ethyl-5-((E)-3-methoxyprop-1-enyl)-7-methyl-3H-imidazo[4,5-b]pyridine]
- IC50 [1]: 4.8 nM
- Emax [2]: 26%
- EC50 [2]: 220 nM

Compound: CCc1nc2c(C)cc(CCc3cccnc3)nc2n1[C@H]1CCc2cc(-c3ccccc3-c3nnn[nH]3)ccc21 [Example 24, 3-((1S)-5-(2-(1H-tetrazol-5-yl)phenyl)-2,3-dihydro-1H-inden-1-yl)-2-ethyl-7-methyl-5-(2-(pyridin-3-yl)ethyl)-3H-imidazo[4,5-b]pyridine]
- IC50 [1]: 2.1 nM
- Emax [2]: 28%
- EC50 [2]: 425 nM

Compound: CCc1nc2c(C)cc(CCc3ccccn3)nc2n1[C@H]1CCc2cc(-c3ccccc3-c3nnn[nH]3)ccc21 [Example 25, 3-((1S)-5-(2-(1H-tetrazol-5-yl)phenyl)-2,3-dihydro-1H-inden-1-yl)-2-ethyl-7-methyl-5-(2-(pyridin-2-yl)ethyl)-3H-imidazo[4,5-b]pyridine]
- IC50 [1]: 2.4 nM
- Emax [2]: 26%
- EC50 [2]: 180 nM

Compound: CCc1nc2c(C)cc(CCc3ccccc3F)nc2n1[C@H]1CCc2cc(-c3ccccc3-c3nnn[nH]3)ccc21 [Example 26, 3-((1S)-5-(2-(1H-tetrazol-5-yl)phenyl)-2,3-dihydro-1H-inden-1-yl)-5-(2-fluorophenethyl)-2-ethyl-7-methyl-3H-imidazo[4,5-b]pyridine]
- IC50 [1]: 10 nM
- Emax [2]: 26%
- EC50 [2]: 380 nM

Compound: CCc1nc2c(C)cc(CCc3ccc(OC)cc3)nc2n1[C@H]1CCc2cc(-c3ccccc3-c3nnn[nH]3)ccc21 [Example 27, 3-((1S)-5-(2-(1H-tetrazol-5-yl)phenyl)-2,3-dihydro-1H-inden-1-yl)-5-(4-methoxyphenethyl)-2-ethyl-7-methyl-3H-imidazo[4,5-b]pyridine]
- IC50 [1]: 2 nM
- Emax [2]: 21%
- EC50 [2]: 485 nM

Compound: CCc1nc2c(C)cc(CCc3ccccc3C)nc2n1[C@H]1CCc2cc(-c3ccccc3-c3nnn[nH]3)ccc21 [Example 28, ((1S)-5-(2-(1H-tetrazol-5-yl)phenyl)-2,3-dihydro-1H-inden-1-yl)-5-(2-methylphenethyl)-2-ethyl-7-methyl-3H-imidazo[4,5-b]pyridine]
- IC50 [1]: 2.2 nM
- Emax [2]: 15%
- EC50 [2]: 330 nM

Compound: CCc1nc2c(C)cc(CCc3cccc(OC)c3)nc2n1[C@H]1CCc2cc(-c3ccccc3-c3nnn[nH]3)ccc21 [Example 29, 3-((1S)-5-(2-(1H-tetrazol-5-yl)phenyl)-2,3-dihydro-1H-inden-1-yl)-5-(3-methoxyphenethyl)-2-ethyl-7-methyl-3H-imidazo[4,5-b]pyridine]
- IC50 [1]: 2.9 nM
- Emax [2]: 31%
- EC50 [2]: 195 nM

Compound: CCc1nc2c(C)cc(CCc3ccccc3)nc2n1[C@H]1CCc2cc(-c3ccccc3-c3nnn[nH]3)ccc21 [Example 30, 3-((1S)-5-(2-(1H-tetrazol-5-yl)phenyl)-2,3-dihydro-1H-inden-1-yl)-2-ethyl-7-methyl-5-phenethyl-3H-imidazo[4,5-b]pyridine]
- IC50 [1]: 6 nM
- Emax [2]: 28%
- EC50 [2]: 160 nM

Compound: CCc1nc2c(C)cc(CCc3cc(C)ccc3C)nc2n1[C@H]1CCc2cc(-c3ccccc3-c3nnn[nH]3)ccc21 [Example 31, 3-((1S)-5-(2-(1H-tetrazol-5-yl)phenyl)-2,3-dihydro-1H-inden-1-yl)-5-(2,5-dimethylphenethyl)-2-ethyl-7-methyl-3H-imidazo[4,5-b]pyridine]
- IC50 [1]: 6.9 nM
- Emax [2]: 63%
- EC50 [2]: 45 nM

Compound: CCc1nc2c(C)cc(CCCc3cccnc3)nc2n1[C@H]1CCc2cc(-c3ccccc3-c3nnn[nH]3)ccc21 [Example 32, 3-((1S)-5-(2-(1H-tetrazol-5-yl)phenyl)-2,3-dihydro-1H-inden-1-yl)-2-ethyl-7-methyl-5-(3-(pyridin-3-yl)propyl)-3H-imidazo[4,5-b]pyridine]
- IC50 [1]: 2.1 nM
- Emax [2]: 20%
- EC50 [2]: 510 nM

Compound: CCc1nc2c(C)cc(CCCn3cccn3)nc2n1[C@H]1CCc2cc(-c3ccccc3-c3nnn[nH]3)ccc21 [Example 33, 5-(3-(1H-pyrazol-1-yl)propyl)-3-((1S)-5-(2-(1H-tetrazol-5-yl)phenyl)-2,3-dihydro-1H-inden-1-yl)-2-ethyl-7-methyl-3H-imidazo[4,5-b]pyridine]
- IC50 [1]: 2.1 nM
- Emax [2]: 23%
- EC50 [2]: 400 nM

Compound: CCc1nc2c(C)cc(CCC(O)c3cccnc3)nc2n1[C@H]1CCc2cc(-c3ccccc3-c3nnn[nH]3)ccc21 (stereo partly drawn) [Example 34, 3-(3-((1S)-5-(2-(1H-tetrazol-5-yl)phenyl)-2,3-dihydro-1H-inden-1-yl)-2-ethyl-7-methyl-3H-imidazo[4,5-b]pyridin-5-yl)-1-(pyridin-3-yl)propan-1-ol]
- IC50 [1]: 2.1 nM
- Emax [2]: 12%
- EC50 [2]: 595 nM

Compound: CCCc1nc2c(C)cc(CCC(C)(C)O)nc2n1[C@H]1CCc2cc(-c3ccccc3-c3nnn[nH]3)ccc21 [Example 35, 4-(3-((1S)-5-(2-(1H-tetrazol-5-yl)phenyl)-2,3-dihydro-1H-inden-1-yl)-7-methyl-2-propyl-3H-imidazo[4,5-b]pyridin-5-yl)-2-methylbutan-2-ol]
- IC50 [1]: 0.5 nM
- Emax [2]: 23%
- EC50 [2]: 390 nM

Compound: CCc1nc2c(C)cc(CC[C@H](C)O)nc2n1[C@H]1CCc2cc(-c3ccccc3-c3nnn[nH]3)ccc21 [Example 36, (S)-4-(3-((1S)-5-(2-(1H-tetrazol-5-yl)phenyl)-2,3-dihydro-1H-inden-1-yl)-2-ethyl-7-methyl-3H-imidazo[4,5-b]pyridin-5-yl)butan-2-ol]
- IC50 [1]: 1.2 nM
- Emax [2]: 30%
- EC50 [2]: 215 nM

Compound: CCc1nc2c(C)cc(CC[C@H](C)OC)nc2n1[C@H]1CCc2cc(-c3ccccc3-c3nnn[nH]3)ccc21 [Example 38, 3-((1S)-5-(2-(1H-tetrazol-5-yl)phenyl)-2,3-dihydro-1H-inden-1-yl)-2-ethyl-5-((S)-3-methoxybutyl)-7-methyl-3H-imidazo[4,5-b]pyridine]
- IC50 [1]: 2 nM
- Emax [2]: 21%
- EC50 [2]: 215 nM

Compound: CCc1nc2c(C)cc(CC[C@@H](C)OC)nc2n1[C@H]1CCc2cc(-c3ccccc3-c3nnn[nH]3)ccc21 [Example 39, 3-((1S)-5-(2-(1H-tetrazol-5-yl)phenyl)-2,3-dihydro-1H-inden-1-yl)-2-ethyl-5-((R)-3-methoxybutyl)-7-methyl-3H-imidazo[4,5-b]pyridine]
- IC50 [1]: 1.1 nM
- Emax [2]: 24%
- EC50 [2]: 135 nM
